Data as given in US20220288075A1, “METHOD AND COMPOSITION FOR TREATING PAIN” (ACADEMIA SINICA, priority 2019, published 2022).

Experiments:
[1] = test system: RISS mice; experiment: RISS (repeated and intermittent sound stress) model, sensory testing (von Frey, muscle withdrawal threshold, Hargreaves); assay type: in vivo; conditions: i.p. injection, post-RISS day 1 and 4; FIG. 1G
Excerpt: Sound stressors were applied as described^14, 43 with modification. Mice were placed (3 per cage) in a 20×30×15 cm bedding cage, which was kept 25 cm below a speaker, inside a 40×50×35 cm sound-insulated box. A speaker emitted pure tones at 5 frequencies (5, 11, 13, 15 and 19 kHz) with random amplitudes varied over time for each frequency (0, 20, 60, 90, and 100 dB sound). Each tone stimulus lasted for 5 or 10 sec in random order, and mice were stimulated continuously without interval. The sound stressors continued for 30 min as a set. In the original SS (sound stress) protocol, a set of 30-min stimuli was given once a day on days 1, 3, and 4 (FIG. 1A)^14. The RISS model intensified the stress protocol by increasing the stimulus frequency: a set of sound stimulus was repeated every 3 hours for 6 times overnight (from 16:00 to 10:00), followed by resting silence for 6 hours (from 10:00 to 16:00). The procedure was repeated on days 1, 3, and 4 as for the SS protocol. The control groups were placed in similar chambers for 4 days without stress exposure. Both groups of mice had access to food and water freely during the stress period. After the stimulus procedure, mice were returned to their original home cages in the animal care facility. In both the SS and RISS protocols, the day after completing the stress stimuli is called P0; the post-stress day 1, P1; and so on. In the experimental design of the […] single-day stimuli of intermittent SS (SISS), the day after SISS is called P′0; the post-stress day 1, P′1; and so on.
(§1) Animals were placed on an elevated mesh platform, and a 0.2-mN von Frey filament was applied to the plantar surface of both hind paws. A positive response was defined as lifting, shaking, guarding, or licking paws when the stimulus was applied. For each paw, the filament was applied 5 times at 30-sec intervals.
Mice were placed individually in Acrylic cubicles mounted on a glass surface maintained at 30° C. The test was performed after acclimatization. The thermal stimulus of the radiant heat was then applied to the plantar surface of each hind paw. Each mouse was tested in three sequential trials with an interval of 2-3 min. The assay cutoff was set at 30 sec to prevent tissue damage. Paw withdrawal latencies were calculated as the mean of three measures.
Muscle withdrawal thresholds were evaluated as described^46. […]
Analgesic drugs: Pregabalin (0.3, 1, 3 or 10 mg/kg bodyweight, i.p.; Toronto Research Chemicals), morphine (0.3, 1, 3 or 10 mg/kg bodyweight, i.p.), diclofenac (1, 3 or 10 mg/kg bodyweight, i.p.; Sigma-Aldrich) or vehicle (0.9% saline) was administered, and the effect of each drug was evaluated by testing 6 mice. […]

[2] = test system: mice with repeated LPC16:0 injection; experiment: Repeated LPC16:0 injection model, drug effects by von Frey test; assay type: in vivo; conditions: for analgesic effect in repeated LPC16:0 injection model (von Frey): intraperitoneal administration, FIG. 10E
Protocol: (§2) The chronic pain model was based on the repeated acid injection model protocol by Sluka et al.^44, and LPC16:0 was used for pain induction to replace acidic saline injection. Mice received in the left gastrocnemius muscle two intramuscular injections (1 day apart) of 10 μL neutral saline solution (pH 7.4; buffered with HEPES) containing vehicle (0.96% ethanol) or LPC16:0 (4.8 nmol; Avanti Polar Lipids Inc)^30. In the experiment of pharmacological inhibition of ASIC3, APETx2 (50 pmole; Alomone, Israel), a selective ASIC3 antagonist, was co-injected with LPC16:0.
as §1
Analgesic drugs: Pregabalin (0.3, 1, 3 or 10 mg/kg bodyweight, i.p.; Toronto Research Chemicals), morphine (0.3, 1, 3 or 10 mg/kg bodyweight, i.p.), diclofenac (1, 3 or 10 mg/kg bodyweight, i.p.; Sigma-Aldrich) or vehicle (0.9% saline) was administered, and the effect of each drug was evaluated by testing 6 mice. Sensory testing was carried out at 30 min and 1, 3 and 24 hours after injection of vehicle or drugs, with the experimenter blinded to the dose of test drugs. […] The 3Rs stand for Replace, Reduce, Refine and represent a responsible approach to animal testing. The goal is to replace animal experiments whenever possible. In addition, the aim is to keep the number of animal experiments as low as possible and to only use the necessary number of animals. Lastly, it is vital to ensure that the distress inflicted upon the animals is as low as possible. Therefore, all the pharmacological studies were conducted on post-RISS day 1 and day 4 (3 days apart, within 1 week after RISS). Mice of post-stress day 1 and day 4 were assigned randomly but equally to each tested dosage for counterbalance. During testing, the experimenter was blind to the individual treatment assignments.
Intrathecal injection was conducted through transcutaneous injection with a 30-gauge needle at the L5-6 dorsal spinal process under anesthesia of isoflurane (1.5%).

[3] = test system: WT mice; experiment: LPC16:0 / lipid injection in wild-type mice, mechanical hypersensitivity by von Frey test; assay type: in vivo; conditions: for long-lasting hyperalgesia / priming-like effect after repeated intramuscular injection: two i.m. injections, 4.8 nmol, 10C
[4] = test system: pERK; experiment: pERK expression of L4 DRG neurons after intramuscular LPC16:0 injection; assay type: in vivo, mice
Protocol: as §2
Immunofluorescence staining. Animals were euthanized with urethane ([…], i.p.) and perfused with 4% paraformaldehyde (PFA) at P0. L4 dorsal root ganglia (DRG) were extracted and immediately post-fixed in 4% PFA for 60 min, and then replaced with 30% sucrose overnight. DRG were embedded in OCT compound and sectioned (12 μm) with a Leica cryostat. […] Images were acquired and quantified under a Carl Zeiss fluorescence microscope with a 10× objective lens. All images from the same experiment were acquired with the same settings, including fluorescence intensity, acquisition time, and image resolution. The immunoreactivity of pERK and the overlap between pERK and neuron markers (SP, CGRP, IB4 or N52) were assessed using Fiji (ImageJ, NIH) software, with the experimenter blinded to treatment and/or genotype. […]

| Molecule | analgesic effect on RISS-induced hyperalgesia (mechanical, muscle, thermal) [1] | analgesic effect in repeated LPC16:0 injection model (von Frey) [2] | long-lasting hyperalgesia / priming-like effect after repeated intramuscular injection ([3]; FIG. 3J) | also measured |
| --- | --- | --- | --- | --- |
| CC(C)C[C@H](CN)CC(=O)O [pregabalin] | dose-dependently reversed hyperalgesia | responded |  |  |
| CCCCCCCCCCCCC/C=C/[C@@H](O)[C@H](COP(=O)([O-])OCC[N+](C)(C)C)NC(=O)CCCCCCCCCCCCCCCCC [SM(d18:1/18:0)] |  |  | not observed |  |
| N#CC(=C(/N)Sc1ccccc1N)/C(C#N)=C(\N)Sc1ccccc1N [U0126] |  |  |  | LPC16:0-induced acute hyperalgesia ([2]; mouse, in vivo): prevented; chronic hyperalgesia induced by the second LPC16:0 injection ([2]; mouse, in vivo): impeded the development of chronic hyperalgesia |
| CCCCCCCCCCCCCCCC(=O)OC[C@@H](O)COP(=O)([O-])OCC[N+](C)(C)C [LPC16:0, lysophosphatidylcholine (LPC) 16:0] |  |  | induced long-lasting hyperalgesic changes | pERK expression in L4 DRG neurons after LPC injection vs vehicle ([4]; i.m. injection, FIG. 10A, 10B): increased; hyperalgesic responses after intramuscular injection, dose dependence ([3]; 4.8, 1.6 and 0.48 nmol i.m., FIG. 3I): dose-dependently evoked hyperalgesic responses; hyperalgesia after single intramuscular injection ([3]; single i.m. injection, FIG. 3J): induced transient bilateral hyperalgesia; hyperalgesia after repeated intraplantar injection ([3]; two intraplantar injections, 4.8 nmole, FIG. 3J right): only induced transient hyperalgesia |
| CCCCCCCCCCCCCCCCCC(=O)OC[C@@H](O)COP(=O)([O-])OCC[N+](C)(C)C [LPC18:0] |  |  | not observed |  |
| CN1CC[C@]23c4c5ccc(O)c4O[C@H]2[C@@H](O)C=C[C@H]3[C@H]1C5 [morphine] | no significant analgesic effects | not |  |  |
| APETx2 |  |  |  | LPC16:0 injection-induced pERK expression in DRG neurons ([4]; APETx2 co-injected with LPC16:0, FIG. 10F, 10G): reduced; chronic hypersensitivity after repeated LPC16:0 injection ([2]; APETx2 50 pmole co-injected i.m. with LPC16:0, FIG. 3K left): significantly reduced; transient (acute) hyperalgesia after LPC16:0 injection ([2]; APETx2 co-injected i.m. with LPC16:0, vs vehicle, FIG. 3K left): transient hyperalgesia was observed |
| O=C(O)Cc1ccccc1Nc1c(Cl)cccc1Cl [diclofenac] | no significant analgesic effects | not |  |  |
